These results are taken from ChEMBL document CHEMBL1140531, “New functional assay of P-glycoprotein activity using Hoechst 33342” (Bioorg Med Chem, 2007).

Data set [1] concerns the target T1, ATP-dependent translocase ABCB1 (Homo sapiens, UniProt P08183). Put plainly: Inhibition of P-glycoprotein expressed in MDCK-MDR1 cells by calcein AM assay. It counts as cell-based.
The target of data set [2] is T1, ATP-dependent translocase ABCB1. Put plainly: Inhibition of P-glycoprotein expressed in A2780/ADR cells by calcein AM assay. It counts as cell-based.
Data set [3] shares this target. Kind of data set: Inhibition of P-glycoprotein by Hoechst assay.
The next data set relates to A2780. Kind of data set: Cytotoxicity against human A2780 cells after 72 hrs by MTT assay. The class given is functional, cell-based. The following applies: A2780, 72 h. For orientation: Tetrazolium assays rely on reduction of a dye to a coloured formazan, in cell work by metabolically active cells.
A short description of data set [4]: Cytotoxicity against human A2780/ADR cells after 72 hrs by MTT assay. It counts as functional, cell-based.

T1 sequence (P08183 whole entry): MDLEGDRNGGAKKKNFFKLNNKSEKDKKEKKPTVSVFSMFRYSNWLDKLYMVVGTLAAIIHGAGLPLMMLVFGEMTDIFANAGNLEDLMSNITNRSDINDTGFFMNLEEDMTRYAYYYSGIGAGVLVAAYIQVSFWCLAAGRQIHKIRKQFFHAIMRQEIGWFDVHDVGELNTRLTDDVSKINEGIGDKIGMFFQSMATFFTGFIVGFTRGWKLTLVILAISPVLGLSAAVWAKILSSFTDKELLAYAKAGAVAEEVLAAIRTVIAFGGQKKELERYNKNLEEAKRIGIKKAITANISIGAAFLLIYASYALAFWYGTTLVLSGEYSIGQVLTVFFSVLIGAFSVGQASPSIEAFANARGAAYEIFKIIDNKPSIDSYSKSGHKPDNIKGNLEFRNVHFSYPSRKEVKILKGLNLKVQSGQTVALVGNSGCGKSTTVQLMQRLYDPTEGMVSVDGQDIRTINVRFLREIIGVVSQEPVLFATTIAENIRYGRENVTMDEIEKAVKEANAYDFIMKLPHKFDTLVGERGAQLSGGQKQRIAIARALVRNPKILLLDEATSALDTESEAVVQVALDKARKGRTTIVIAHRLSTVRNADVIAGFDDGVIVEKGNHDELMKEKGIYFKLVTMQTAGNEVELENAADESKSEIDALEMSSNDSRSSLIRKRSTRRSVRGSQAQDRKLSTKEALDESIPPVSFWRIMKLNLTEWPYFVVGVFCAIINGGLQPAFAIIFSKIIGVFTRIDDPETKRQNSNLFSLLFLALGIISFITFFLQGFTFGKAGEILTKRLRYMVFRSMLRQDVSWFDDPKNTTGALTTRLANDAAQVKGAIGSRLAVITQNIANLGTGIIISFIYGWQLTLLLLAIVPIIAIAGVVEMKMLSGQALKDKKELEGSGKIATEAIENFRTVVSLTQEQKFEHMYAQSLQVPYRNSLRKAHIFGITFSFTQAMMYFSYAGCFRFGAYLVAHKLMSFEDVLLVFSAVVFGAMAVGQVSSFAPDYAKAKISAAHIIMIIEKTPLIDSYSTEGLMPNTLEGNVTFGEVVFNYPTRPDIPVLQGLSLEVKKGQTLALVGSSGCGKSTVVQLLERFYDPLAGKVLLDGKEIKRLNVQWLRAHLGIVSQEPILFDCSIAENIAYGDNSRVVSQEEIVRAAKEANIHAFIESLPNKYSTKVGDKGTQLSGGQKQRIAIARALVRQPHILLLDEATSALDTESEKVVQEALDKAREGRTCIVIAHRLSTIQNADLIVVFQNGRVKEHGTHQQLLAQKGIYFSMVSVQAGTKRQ

Usually Hill coefficient stands for the slope factor of the fitted curve. In general, IC50 refers to the midpoint of a concentration-inhibition curve. Consider `COC(=O)[C@H]1[C@H]2C[C@@H]3c4[nH]c5cc(OC)ccc5c4CCN3C[C@H]2C[C@@H](OC(=O)c2cc(OC)c(OC)c(OC)c2)[C@@H]1OC` [RESERPINE], for which, in data set [1], the Hill coefficient is recorded as 1.88. The IC50 is 3240 nM in data set [2] and 3020 nM in data set [3].
As to `COc1cccc2c1C(=O)c1c(O)c3c(c(O)c1C2=O)C[C@@](O)(C(=O)CO)C[C@@H]3O[C@H]1C[C@H](N)[C@H](O)[C@H](C)O1` [DOXORUBICIN], the figures for the IC50 (in the data set on A2780; in data set [4]) were 93.3 nM and 13500 nM, respectively.
On to `CC(=O)[C@H]1CC[C@H]2[C@@H]3CCC4=CC(=O)CC[C@]4(C)[C@H]3CC[C@]12C` [PROGESTERONE], for which the Hill coefficient in data set [1] is listed as 1.31.
For the molecule `COC(=O)c1ccccc1-c1c2ccc(=N)cc-2oc2cc(N)ccc12` [RHODAMINE123], the IC50 in the data set with A2780 is 1910 nM; in data set [4], 123000 nM.
In the case of `CC(=O)O[C@@]12CO[C@@H]1C[C@H](O)[C@@]1(C)C(=O)[C@H](O)C3=C(C)[C@@H](OC(=O)[C@H](O)[C@@H](NC(=O)OC(C)(C)C)c4ccccc4)C[C@@](O)([C@@H](OC(=O)c4ccccc4)[C@H]21)C3(C)C` [DOCETAXEL], the concentration for half-maximal inhibition (IC50) was 4.9 nM in the data set on A2780 and 87.1 nM in data set [4].
As to `COc1ccc([C@@H]2Sc3ccccc3N(CCN(C)C)C(=O)[C@@H]2OC(C)=O)cc1` [DILTIAZEM], the Hill coefficient in data set [1] is listed as 1.15.
As for `O=C(Nc1ccccc1C(=O)Nc1ccc(CCN2CCc3ccccc3C2)cc1)c1cnc2ccccc2c1`, the Hill coefficient in data set [1] was 2.42. Also, the IC50 in data set [2] is 490 nM; in data set [3], 355 nM.
Turning to `COc1cccc2c1C(=O)c1c(O)c3c(c(O)c1C2=O)C[C@@](O)(C(C)=O)C[C@@H]3O[C@H]1C[C@H](N)[C@H](O)[C@H](C)O1` [DAUNORUBICIN], the concentration for half-maximal inhibition (IC50) in the data set on A2780 was 117 nM; in data set [4] it was 18600 nM.
For `COc1cc2c(cc1OC)CN(CCc1ccc(NC(=O)c3ccccc3NC(=O)c3ccccc3)cc1)CC2`, in data set [1], the Hill coefficient is given as 2.01. Moreover, the IC50 in data set [2] is 851 nM; in data set [3], 513 nM.
For `COc1ccc(C(=O)Nc2ccccc2C(=O)Nc2ccc(CCN3CCc4cc(OC)c(OC)cc4C3)cc2)cc1OC` the same measures were 2.89, 339 nM and 331 nM.
Take `CCOc1ccc(-c2nc3cc(-c4nc5cc(N6CCN(C)CC6)ccc5[nH]4)ccc3[nH]2)cc1`: the figures for the IC50 (in the data set with A2780; in data set [4]) were 1910 nM and 38000 nM, respectively.
For `O=C(Nc1ccc(CCN2CCc3ccccc3C2)cc1)Nc1ccccc1NC(=O)c1cnc2ccccc2c1`, the Hill coefficient in data set [1] is recorded as 2.6. Further, the half-inhibitory concentration (IC50) in data set [2] is 813 nM.
With `COc1cc2c(c(OC)c1OC)-c1ccc(OC)c(=O)cc1[C@@H](NC(C)=O)CC2` [COLCHICINE], the IC50 with A2780 is 22.9 nM; in data set [4], 372 nM.
Regarding `COC(=O)C1=C(C)NC(C)=C(C(=O)OCCN(C)Cc2ccccc2)C1c1cccc([N+](=O)[O-])c1` (stereo not drawn) [NICARDIPINE], in data set [1], the Hill coefficient is recorded as 2.44.
In the case of `CC[C@]1(O)C[C@@H]2CN(CCc3c([nH]c4ccccc34)[C@@](C(=O)OC)(c3cc4c(cc3OC)N(C)[C@H]3[C@@](O)(C(=O)OC)[C@H](OC(C)=O)[C@]5(CC)C=CCN6CC[C@]43[C@@H]65)C2)C1` [VINBLASTINE], the IC50 in the data set with A2780 was 61.7 nM; in data set [4] it was 2820 nM. Besides, the Hill coefficient in data set [1] is reported as 2.06.
Turning to `Cc1ccc(NC(=O)c2ccc(CN3CCN(C)CC3)cc2)cc1Nc1nccc(-c2cccnc2)n1` [IMATINIB], in data set [1], the Hill coefficient is reported as 1.18.
